Source: PubChem BioAssay AID1963853 (Molecular Pharmacology Branch, DTP, NCI, 2024)
pIC50: −log10 of the molar value.

System: 266295-075-R-J1-PDC spheroid viability
Assay: Anticancer human tumor 266295-075-R-J1-PDC patient-derived head and neck squamous carcinoma cell line growth inhibition [POLQ]
Settings: spheroids with HUVEC and MSC; for pIC50: curve of first compound; for viability, T/C: stronger effect = lower value
Outline: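 PDC + HUVEC + MSC complex spheroids; POLQ inhibitors ± partner drugs; top conc. at/near clinical Cmax, else 10 microM (SN-38 1 microM), half-log dilutions; 37 degrees C, 5% CO2.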

[1] = second compound 0.0316 µM, first compound 0.0316 µM
[2] = second compound 0.0316 µM, first compound 0.1 µM
[3] = second compound 0.0316 µM, first compound 0.316 µM
[4] = second compound 0.0316 µM, first compound 1 µM
[5] = second compound 0.0316 µM, first compound 3.16 µM
[6] = second compound 0.0316 µM, first compound 10 µM
[7] = second compound 0.1 µM, first compound 0.0316 µM
[8] = second compound 0.1 µM, first compound 0.1 µM
[9] = second compound 0.1 µM, first compound 0.316 µM
[10] = second compound 0.1 µM, first compound 1 µM
[11] = second compound 0.1 µM, first compound 3.16 µM
[12] = second compound 0.1 µM, first compound 10 µM
[13] = second compound 0.316 µM, first compound 0.0316 µM
[14] = second compound 0.316 µM, first compound 0.1 µM
[15] = second compound 0.316 µM, first compound 0.316 µM
[16] = second compound 0.316 µM, first compound 1 µM
[17] = second compound 0.316 µM, first compound 3.16 µM
[18] = second compound 0.316 µM, first compound 10 µM
[19] = second compound 1 µM, first compound 0.0316 µM
[20] = second compound 1 µM, first compound 0.1 µM
[21] = second compound 1 µM, first compound 0.316 µM
[22] = second compound 1 µM, first compound 1 µM
[23] = second compound 1 µM, first compound 3.16 µM
[24] = second compound 1 µM, first compound 10 µM
[25] = second compound 3.16 µM, first compound 0.0316 µM
[26] = second compound 3.16 µM, first compound 0.1 µM
[27] = second compound 3.16 µM, first compound 0.316 µM
[28] = second compound 3.16 µM, first compound 1 µM
[29] = second compound 3.16 µM, first compound 3.16 µM
[30] = second compound 3.16 µM, first compound 10 µM
[31] = second compound 10 µM, first compound 0.0316 µM
[32] = second compound 10 µM, first compound 0.1 µM
[33] = second compound 10 µM, first compound 0.316 µM
[34] = second compound 10 µM, first compound 1 µM
[35] = second compound 10 µM, first compound 3.16 µM
[36] = second compound 10 µM, first compound 10 µM
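Also: spheroids exposed to compounds for seven days before readout.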

`CCc1cc2c(N3CCc4c(cc(Cn5ccnc5)cc4-c4cn(C)nc4C(F)(F)F)C3=O)ccnc2c(OC)n1` + Nc1ccc(C#CCN(C(=O)Cc2ncc(C(F)(F)F)cc2C(F)(F)F)c2ccc(F)cc2)nn1 was tested, and the pIC50 (second compound 0.0316 µM) was < 5.00, the pIC50 (second compound 0.1 µM) was < 5.00 and the pIC50 (second compound 0.316 µM) was < 5.00. For the same compound, the pIC50 (second compound 1 µM) was < 5.00, the pIC50 (second compound 3.16 µM) was < 5.00 and the pIC50 (second compound 10 µM) was < 5.00. It also gave a viability, T/C [1] of 92.7%, a viability, T/C [2] of 102% and a viability, T/C [3] of 105%. The viability, T/C [4] was 141%, the viability, T/C [5] was 183% and the viability, T/C [6] was 159%. The viability, T/C [7] was 100%, the viability, T/C [8] was 110% and the viability, T/C [9] was 91.7%. For the same compound, the viability, T/C [10] was 135%, the viability, T/C [11] was 127% and the viability, T/C [12] was 132%. It also gave a viability, T/C [13] of 116%, a viability, T/C [14] of 120% and a viability, T/C [15] of 110%. It also gave a viability, T/C [16] of 138%, a viability, T/C [17] of 148% and a viability, T/C [18] of 127%. The viability, T/C [19] was 109%, the viability, T/C [20] was 117% and the viability, T/C [21] was 97.5%. The viability, T/C [22] was 114%, the viability, T/C [23] was 134% and the viability, T/C [24] was 115%. For the same compound, the viability, T/C [25] was 99.8%, the viability, T/C [26] was 103% and the viability, T/C [27] was 122%. For the same compound, the viability, T/C [28] was 102%, the viability, T/C [29] was 110% and the viability, T/C [30] was 130%. It also gave a viability, T/C [31] of 103%, a viability, T/C [32] of 97.7% and a viability, T/C [33] of 118%. For the same compound, the viability, T/C [34] was 115%, the viability, T/C [35] was 133% and the viability, T/C [36] was 121%.
With `COc1cccc(OCCCN)c1-c1cc(Nc2cnc(C#N)cn2)n[nH]1` + Cc1cccc(N(C)C(=O)C2C(O)CCN2c2nc(C)cc(C(F)(F)F)c2C#N)c1 the pIC50 (second compound 0.0316 µM) was < 6.00, the pIC50 (second compound 0.1 µM) was < 6.00 and the pIC50 (second compound 0.316 µM) was < 6.00. For the same compound, the pIC50 (second compound 1 µM) was 6.01, the pIC50 (second compound 3.16 µM) was < 6.00 and the pIC50 (second compound 10 µM) was < 6.00. The viability, T/C (second compound 0.0316 µM, first compound 0.00316 µM) was 128%, the viability, T/C (second compound 0.0316 µM, first compound 0.01 µM) was 127% and the viability, T/C [1] was 87.2%. It also gave a viability, T/C [2] of 80%, a viability, T/C [3] of 81.7% and a viability, T/C [4] of 72%. It also gave a viability, T/C (second compound 0.1 µM, first compound 0.00316 µM) of 101%, a viability, T/C (second compound 0.1 µM, first compound 0.01 µM) of 101% and a viability, T/C [7] of 83.3%. For the same compound, the viability, T/C [8] was 76.3%, the viability, T/C [9] was 79.1% and the viability, T/C [10] was 62%. For the same compound, the viability, T/C (second compound 0.316 µM, first compound 0.00316 µM) was 109%, the viability, T/C (second compound 0.316 µM, first compound 0.01 µM) was 90.7% and the viability, T/C [13] was 68%. The viability, T/C [14] was 71.1%, the viability, T/C [15] was 72.1% and the viability, T/C [16] was 63.9%. The viability, T/C (second compound 1 µM, first compound 0.00316 µM) was 127%, the viability, T/C (second compound 1 µM, first compound 0.01 µM) was 85.5% and the viability, T/C [19] was 89.8%. It also gave a viability, T/C [20] of 75.1%, a viability, T/C [21] of 66.7% and a viability, T/C [22] of 50.1%. For the same compound, the viability, T/C (second compound 3.16 µM, first compound 0.00316 µM) was 106%, the viability, T/C (second compound 3.16 µM, first compound 0.01 µM) was 101% and the viability, T/C [25] was 77.7%. The viability, T/C [26] was 77.7%, the viability, T/C [27] was 75.2% and the viability, T/C [28] was 64.8%. The viability, T/C (second compound 10 µM, first compound 0.00316 µM) was 107%, the viability, T/C (second compound 10 µM, first compound 0.01 µM) was 108% and the viability, T/C [31] was 81.5%. For the same compound, the viability, T/C [32] was 74.3%, the viability, T/C [33] was 58.5% and the viability, T/C [34] was 75.3%.
With `CCCS(=O)(=O)Nc1ccc(F)c(C(=O)c2c[nH]c3ncc(-c4ccc(Cl)cc4)cc23)c1F` + Nc1ccc(C#CCN(C(=O)Cc2ncc(C(F)(F)F)cc2C(F)(F)F)c2ccc(F)cc2)nn1 the pIC50 (second compound 0.0316 µM) was < 5.00, the pIC50 (second compound 0.1 µM) was < 5.00 and the pIC50 (second compound 0.316 µM) was < 5.00. For the same compound, the pIC50 (second compound 1 µM) was < 5.00, the pIC50 (second compound 3.16 µM) was < 5.00 and the pIC50 (second compound 10 µM) was < 5.00. For the same compound, the viability, T/C [1] was 97.9%, the viability, T/C [2] was 115% and the viability, T/C [3] was 115%. It also gave a viability, T/C [4] of 102%, a viability, T/C [5] of 158% and a viability, T/C [6] of 160%. It also gave a viability, T/C [7] of 101%, a viability, T/C [8] of 105% and a viability, T/C [9] of 99.2%. For the same compound, the viability, T/C [10] was 116%, the viability, T/C [11] was 156% and the viability, T/C [12] was 145%. The viability, T/C [13] was 102%, the viability, T/C [14] was 103% and the viability, T/C [15] was 82.3%. For the same compound, the viability, T/C [16] was 105%, the viability, T/C [17] was 143% and the viability, T/C [18] was 131%. The viability, T/C [19] was 122%, the viability, T/C [20] was 92.5% and the viability, T/C [21] was 115%. For the same compound, the viability, T/C [22] was 93.8%, the viability, T/C [23] was 146% and the viability, T/C [24] was 145%. It also gave a viability, T/C [25] of 84.8%, a viability, T/C [26] of 135% and a viability, T/C [27] of 121%. It also gave a viability, T/C [28] of 109%, a viability, T/C [29] of 142% and a viability, T/C [30] of 160%. For the same compound, the viability, T/C [31] was 119%, the viability, T/C [32] was 104% and the viability, T/C [33] was 104%. The viability, T/C [34] was 119%, the viability, T/C [35] was 143% and the viability, T/C [36] was 171%.
